Results taken from patent US10125134B2 (Mirati Therapeutics, Inc., priority 2016, dated 2018).
Like-named read-outs stand apart in the source and are kept apart here.

Key:
KRas G12C = KRas G12C (Homo sapiens, UniProt P01116, C118S/C51S/C80L/G12C); assay: KRas G12C Modification Assay (LCMS detection of covalent adduct); type: binding
In short: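 Covalent modification was read by reverse-phase LC/MS of intact protein after compound exposure, each reaction stopped at its time point with 25 mM acetic acid. Unmodified-protein signal, taken as percent of total, was normalised to untreated protein and reported as POC.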

[1] = test system: NCI-H358 cells (express KRas G12C), Phospho-ERK; assay: Cellular inhibition of KRas G12C: Phospho-ERK in NCI-H358 cells; type: cell-based; settings: Homo sapiens
In short: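 IC50 derived by 4-parameter fit of GAPDH-normalized pERK(Thr202/Tyr204) signal, as percent of DMSO control. Signal came from in-cell immunodetection with infrared secondaries after 3 h compound exposure of KRas G12C NCI-H358 cells at 0.5% DMSO.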

[2] = normalized percent of control, tested at 5 μM concentration for 3 hours
[3] = NCI-H358, 3 h, pERK(Thr202/Tyr204) normalized with GAPDH, NCI-H358 cells, 3 hours, read-out: IC50
[4] = pERK(Thr202/Tyr204) normalized with GAPDH, NCI-H358 cells, 3 hours, read-out: IC50

POC (KRas G12C; [2]) | SMILES | IC50 [1, 3] [µM] | POC (KRas G12C; 5 µM) | IC50 ([1]; NCI-H358, 3 h) [µM] | IC50 [1, 4] [µM]
C (“C”>50% POC) | C=CC(=O)N1CCN(c2nc(OC[C@@H]3CCCN3C)nc3c2CCN(c2cccc4cccnc24)C3)CC1CC#N (stereo partly drawn) [Example 247, 2-(1-acryloyl-4-(2-(((S)-1-methylpyrrolidin-2-yl)methoxy)-7-(quinolin-8-yl)-5,6,7,8-tetrahydropyrido[3,4-d]pyrimidin-4-yl)piperazin-2-yl)acetonitrile] | > 1 | – | – | –
C (“C”>50% POC) | C=CC(=O)N1CCN(c2nc(OC[C@@H]3CCCN3C)nc3c2CCN(c2c(Cl)ccc4[nH]ncc24)C3)CC1 [Example 250, 1-[4-[7-(5-chloro-1H-indazol-4-yl)-2-[[(2S)-1-methylpyrrolidin-2-yl]methoxy]-6,8-dihydro-5H-pyrido[3,4-d]pyrimidin-4-yl]piperazin-1-yl]prop-2-en-1-one] | > 1 | – | – | –
C (“C”>50% POC) | C=CC(=O)N1CCN(c2nc(OC[C@@H]3CCCN3C)nc3c2CCN(c2cccc4ccc(Cl)cc24)C3)CC1CC#N (stereo partly drawn) [Example 253, 2-(1-acryloyl-4-(7-(7-chloronaphthalen-1-yl)-2-(((S)-1-methylpyrrolidin-2-yl)methoxy)-5,6,7,8-tetrahydropyrido[3,4-d]pyrimidin-4-yl)piperazin-2-yl)acetonitrile] | 0.0001 to 1 | – | – | –
C (“C”>50% POC) | C=CC(=O)N1CCN(c2nc(OC[C@@H]3CCCN3C)nc3c2CCN(c2cccc4c(F)cccc24)C3)CC1CC#N (stereo partly drawn) [Example 254, 2-[4-[7-(5-fluoro-1-naphthyl)-2-[[(2S)-1-methylpyrrolidin-2-yl]methoxy]-6,8-dihydro-5H-pyrido[3,4-d]pyrimidin-4-yl]-1-prop-2-enoyl-piperazin-2-yl]acetonitrile] | 0.0001 to 1 | – | – | –
A (“A”≤25% POC) | C=CC(=O)N1CCN(c2nc(OC[C@@H]3CCCN3C)nc3c2CCN(c2cccc4ccc(OC)cc24)C3)CC1CC#N (stereo partly drawn) [Example 255, 2-[4-[7-(7-methoxy-1-naphthyl)-2-[[(2S)-1-methylpyrrolidin-2-yl]methoxy]-6,8-dihydro-5H-pyrido[3,4-d]pyrimidin-4-yl]-1-prop-2-enoyl-piperazin-2-yl]acetonitrile] | > 1 | – | – | –
C (“C”>50% POC) | C=CC(=O)N1CCN(c2nc(OC[C@@H]3CCCN3C)nc3c2CCN(c2cccc4ccccc24)C3)CC1COC (stereo partly drawn) [Example 256, 1-(2-(methoxymethyl)-4-(2-(((S)-1-methylpyrrolidin-2-yl)methoxy)-7-(naphthalen-1-yl)-5,6,7,8-tetrahydropyrido[3,4-d]pyrimidin-4-yl)piperazin-1-yl)prop-2-en-1-one] | > 1 | – | – | –
C (“C”>50% POC) | C=CC(=O)N1CCN(c2nc(OC[C@@H]3CCCN3C)nc3c2CCN(c2nccc4ccccc24)C3)CC1CC#N (stereo partly drawn) [Example 258, 2-[4-[7-(1-isoquinolyl)-2-[[(2S)-1-methylpyrrolidin-2-yl]methoxy]-6,8-dihydro-5H-pyrido[3,4-d]pyrimidin-4-yl]-1-prop-2-enoyl-piperazin-2-yl]acetonitrile] | > 1 | – | – | –
C (“C”>50% POC) | C=CC(=O)N1CCN(c2nc(OC[C@@H]3CCCN3C)nc3c2CCN(c2cncc4ccccc24)C3)CC1CC#N (stereo partly drawn) [Example 260, 2-[4-[7-(4-isoquinolyl)-2-[[(2S)-1-methylpyrrolidin-2-yl]methoxy]-6,8-dihydro-5H-pyrido[3,4-d]pyrimidin-4-yl]-1-prop-2-enoyl-piperazin-2-yl]acetonitrile] | 0.0001 to 1 | – | – | –
A (“A”≤25% POC) | C=C(C)C(=O)N1CCN(c2nc(OC[C@@H]3CCCN3C)nc3c2CCN(c2cccc4ccccc24)C3)CC1CC#N (stereo partly drawn) [Example 261, 2-[1-(2-methylprop-2-enoyl)-4-[2-[[(2S)-1-methylpyrrolidin-2-yl]methoxy]-7-(1-naphthyl)-6,8-dihydro-5H-pyrido[3,4-d]pyrimidin-4-yl]piperazin-2-yl]acetonitrile] | > 1 | – | – | –
C (“C”>50% POC) | C=CC(=O)N1CCN(c2nc(OC[C@@H]3CCCN3CCOC)nc3c2CCN(c2cccc4ccccc24)C3)CC1CC#N (stereo partly drawn) [Example 266, 2-(1-acryloyl-4-(2-(((S)-1-(2-methoxyethyl)pyrrolidin-2-yl)methoxy)-7-(naphthalen-1-yl)-5,6,7,8-tetrahydropyrido[3,4-d]pyrimidin-4-yl)piperazin-2-yl)acetonitrile] | 0.0001 to 1 | – | – | –
C (“C”>50% POC) | C=CC(=O)N1CCN(c2nc(OC[C@@H]3C[C@@H](OC)CN3C)nc3c2CCN(c2cccc4ccccc24)C3)CC1CC#N (stereo partly drawn) [Example 268, 2-(1-acryloyl-4-(2-(((2S,4R)-4-methoxy-1-methylpyrrolidin-2-yl)methoxy)-7-(naphthalen-1-yl)-5,6,7,8-tetrahydropyrido[3,4-d]pyrimidin-4-yl)piperazin-2-yl)acetonitrile] | 0.0001 to 1 | – | – | –
C (“C”>50% POC) | C=CC(=O)N1CCN(c2nc(OCC(C)(C)N(C)C)nc3c2CCN(c2cccc4ccccc24)C3)CC1CC#N (centres unmarked) [Example 269, 2-(1-acryloyl-4-(2-(2-(dimethylamino)-2-methylpropoxy)-7-(naphthalen-1-yl)-5,6,7,8-tetrahydropyrido[3,4-d]pyrimidin-4-yl)piperazin-2-yl)acetonitrile] | 0.0001 to 1 | – | – | –

The remaining lines, values behind:

SMILES | POC (KRas G12C; [2]) | IC50 [1, 3] [µM] | POC (KRas G12C; 5 µM) | IC50 ([1]; NCI-H358, 3 h) [µM] | IC50 [1, 4] [µM]
C=CC(=O)N1CCN(c2nc(OC[C@@H]3CCCN3C)nc3c2CCN(c2c(C(C)C)ccc4[nH]ncc24)C3)CC1 [Example 248, (S)-1-(4-(7-(5-isopropyl-1H-indazol-4-yl)-2-((1-methylpyrrolidin-2-yl)methoxy)-5,6,7,8-tetrahydropyrido[3,4-d]pyrimidin-4-yl)piperazin-1-yl)prop-2-en-1-one] | – | – | C (key: “A”≤25% POC; “B”>25% POC−≤50% POC; “C”>50% POC) | > 1 | –
C=CC(=O)N1CCN(c2nc(OC[C@@H]3CCCN3C)nc3c2CCN(c2c(F)c(O)cc4ccccc24)C3)CC1 [Example 249, 1-[4-[7-(2-fluoro-3-hydroxy-1-naphthyl)-2-[[(2S)-1-methylpyrrolidin-2-yl]methoxy]-6,8-dihydro-5H-pyrido[3,4-d]pyrimidin-4-yl]piperazin-1-yl]prop-2-en-1-one] | C (“C”>50% POC) | – | – | – | 0.0001 to 1
C=CC(=O)N1CCN(c2nc(OC[C@@H]3CCCN3C(C)C)nc3c2CCN(c2cccc4ccccc24)C3)CC1CC#N (stereo partly drawn) [Example 252, 2-[4-[2-[[(2S)-1-isopropylpyrrolidin-2-yl]methoxy]-7-(1-naphthyl)-6,8-dihydro-5H-pyrido[3,4-d]pyrimidin-4-yl]-1-prop-2-enoyl-piperazin-2-yl]acetonitrile] | C (“C”>50% POC) | – | – | – | 0.0001 to 1
C=CC(=O)N1CCN(c2nc(OC[C@@H]3CCCN3C)nc3c2CCN(c2cccc4cc(F)ccc24)C3)CC1CC#N (stereo partly drawn) [Example 259, 2-[4-[7-(6-fluoro-1-naphthyl)-2-[[(2S)-1-methylpyrrolidin-2-yl]methoxy]-6,8-dihydro-5H-pyrido[3,4-d]pyrimidin-4-yl]-1-prop-2-enoyl-piperazin-2 yl]acetonitrile] | C (“C”>50% POC) | 0.0001 to 1 | – | – | –
C=CC(=O)N1CCN(c2nc(OC[C@@H]3CCCN3C)nc3c2CCN(c2cccc4cnccc24)C3)CC1CC#N (stereo partly drawn) [Example 262, 2-[4-[7-(5-isoquinolyl)-2-[[(2S)-1-methylpyrrolidin-2-yl]methoxy]-6,8-dihydro-5H-1-pyrido[3,4-d]pyrimidin-4-yl]-1-prop-2-enoyl-piperazin-2-yl]acetonitrile] | A (“A”≤25% POC) | > 1 | – | – | –
C/C=C/C(=O)N1CCN(c2nc(OC[C@@H]3CCCN3C)nc3c2CCN(c2cccc4ccccc24)C3)CC1CC#N (stereo partly drawn) [Example 263, 2-[1-[(E)-but-2-enoyl]-4-[2-[[(2S)-1-methylpyrrolidin-2-yl]methoxy]-7-(1-naphthyl)-6,8-dihydro-5H-pyrido[3,4-d]pyrimidin-4-yl]piperazin-2-yl]acetonitrile] | C (“C”>50% POC) | 0.0001 to 1 | – | – | –
C=CC(=O)N1CCN(c2nc(OC[C@@H]3CCCN3C)nc3c2CCN(c2cccc4ncccc24)C3)CC1CC#N (stereo partly drawn) [Example 264, 2-[4-[2-[[(2S)-1-methylpyrrolidin-2-yl]methoxy]-7-(5-quinolyl)-6,8-dihydro-5H-pyrido[3,4-d]pyrimidin-4-yl]-1-prop-2-enoyl-piperazin-2-yl]acetonitrile] | C (“C”>50% POC) | > 1 | – | – | –
C=CC(=O)N1CCN(c2nc(OC[C@@H]3CCCN3C)nc3c2CCN(c2cccc(C)c2C(F)(F)F)C3)CC1CC#N (stereo partly drawn) [Example 265, 2-(1-acryloyl-4-(7-(3-methyl-2-(trifluoromethyl)phenyl)-2-(((S)-1-methylpyrrolidin-2-yl)methoxy)-5,6,7,8-tetrahydropyrido[3,4-d]pyrimidin-4-yl)piperazin-2-yl)acetonitrile] | C (“C”>50% POC) | 0.0001 to 1 | – | – | –
C=CC(=O)N1CCN(c2nc(OC[C@H]3CCCN3C)nc3c2CCN(c2cccc4ccccc24)C3)C[C@@H]1CC#N [Example 267, 2-((S)-1-acryloyl-4-(2-(((R)-1-methylpyrrolidin-2-yl)methoxy)-7-(naphthalen-1-yl)-5,6,7,8-tetrahydropyrido[3,4-d]pyrimidin-4-yl)piperazin-2-yl)acetonitrile] | C (“C”>50% POC) | – | – | – | 0.0001 to 1
C=CC(=O)N1CCN(c2nc(OC[C@H]3CN(C)CCO3)nc3c2CCN(c2cccc4ccccc24)C3)CC1CC#N (stereo partly drawn) [Example 270, 2-(1-acryloyl-4-(2-(((R)-4-methylmorpholin-2-yl)methoxy)-7-(naphthalen 1-yl)-5,6,7,8-tetrahydropyrido[3,4-d]pyrimidin-4-yl)piperazin-2-yl)acetonitrile] | C (“C”>50% POC) | 0.0001 to 1 | – | – | –
